Measurements reported in patent US8476043B2, “Inhibitors for the soluble epoxide hydrolase” (The Regents of the University of California, priority 2004, dated 2013).
Like-named read-outs stand apart in the source and are kept apart here.

Target: T1, human sEH (Homo sapiens, UniProt P34913)
T1 construct: made in house
T1 sequence (P34913 1-555): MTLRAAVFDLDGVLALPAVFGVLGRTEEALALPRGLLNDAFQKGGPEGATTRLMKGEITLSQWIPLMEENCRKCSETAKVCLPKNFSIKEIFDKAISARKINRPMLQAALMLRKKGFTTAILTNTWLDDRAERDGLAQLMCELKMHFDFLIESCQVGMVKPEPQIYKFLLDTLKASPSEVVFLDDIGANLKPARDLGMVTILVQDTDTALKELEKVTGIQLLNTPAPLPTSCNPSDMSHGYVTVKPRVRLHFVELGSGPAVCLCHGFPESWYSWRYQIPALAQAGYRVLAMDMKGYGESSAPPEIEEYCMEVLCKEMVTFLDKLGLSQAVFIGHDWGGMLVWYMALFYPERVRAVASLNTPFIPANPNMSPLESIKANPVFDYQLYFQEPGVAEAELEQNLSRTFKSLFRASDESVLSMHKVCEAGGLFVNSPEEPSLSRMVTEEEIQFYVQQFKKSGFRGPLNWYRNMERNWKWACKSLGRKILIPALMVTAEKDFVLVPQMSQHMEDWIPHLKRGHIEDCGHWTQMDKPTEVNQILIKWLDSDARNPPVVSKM
Experiment: sEH inhibition, fluorescent assay with cyano(6-methoxy-naphthalen-2-yl)methyl trans-[(3-phenyloxiran-2-yl)methyl]carbonate as substrate
Type: biochemical
Protocol: Recombinant mouse sEH and human sEH were produced in a baculovirus expression system and purified by affinity chromatography. […] Protein concentration was quantified by using the Pierce BCA assay using Fraction V bovine serum albumin as the calibrating standard.
Enzyme activity was measured by monitoring the appearance of 6-methoxy-2-naphthaldehyde. Assays were performed in triplicate. […] IC50 values were determined by regression of at least five datum points, with a minimum of two datum points in the linear region of the curve on either side of the IC50 values. The curve was generated from at least three separate runs, each in triplicate.

[1] = Table 18b, fluorescent assay with cyano(6-methoxy-naphthalen-2-yl)methyl trans-[(3-phenyloxiran-2-yl)methyl]carbonate as substrate, mean ± SD, read-out: IC50

Row | IC50 [1] [nM] | Structure (SMILES) | further results
1 | 10 ± 10 | COCC(=O)c1ccc(OC2CCC(NC(=O)NC34CC5CC(CC(C5)C3)C4)CC2)cc1 (centres unmarked) [Compound 1470] | –
2 | 10 ± 10 | O=C(Cc1ccc(NC(=O)NC23CC4CC(CC(C4)C2)C3)cc1)NC(C(=O)NCC(C(=O)O)c1c[nH]c2ccccc12)c1ccccc1 (centres unmarked) [Compound 1425] | –
3 | 10 ± 10 | CCOC(=O)C(F)(F)Oc1ccc(NC(=O)NC23CC4CC(CC(C4)C2)C3)cc1 [Compound 1443] | –
4 | 10 ± 10 | O=C(Nc1ccc(Cl)cc1)NC1CCC(Oc2ccc(F)cc2)CC1 (centres unmarked) [Compound 1514] | –
5 | 10 ± 10 | O=C(NCCCCCCCCO)NC12CC3CC(CC(C3)C1)C2 [Compound 1449] | –
6 | 10 ± 10 | CC(C)(Oc1ccc(NC(=O)NC23CC4CC(CC(C4)C2)C3)cc1)C(=O)OCc1ccccc1 [Compound 1441] | –
7 | 150 ± 10 | CC(C)(Oc1ccc(NC(=O)NC23CC4CC(CC(C4)C2)C3)cc1)C(=O)O [Compound 1442] | –
8 | 50 ± 10 | O=C(NC1CCC(Oc2ccc(C(F)(F)F)cn2)CC1)NC12CC3CC(CC(C3)C1)C2 (centres unmarked) [Compound 1513] | –
9 | 10 ± 10 | O=C(Nc1ccc(OCCN2CCOCC2)c(Cl)c1)NC12CC3CC(CC(C3)C1)C2 [Compound 1447] | –
10 | 10 ± 10 | O=C(O)CCc1cccc(NC(=O)NC23CC4CC(CC(C4)C2)C3)c1 [Compound 1226] | –
11 | 10 ± 10 | O=C(NC1CCCCCC1)NC1CCC(Oc2ccc(F)cc2)CC1 (centres unmarked) [Compound 1515] | –
12 | 10 ± 10 | O=C(O)CCCc1ccc(NC(=O)NC23CC4CC(CC(C4)C2)C3)cc1 [Compound 1224] | –
13 | 10 ± 10 | COCC(=O)c1ccc(OC2CCC(NC(=O)NC34CC5CC(CC(C5)C3)C4)CC2)cc1 (centres unmarked) [Compound 1469] | –
14 | 40 ± 10 | CCOC(=O)c1cccc(NC(=O)CC23CC4CC(CC(C4)C2)C3)c1 [Compound 1452] | –
15 | 10 ± 10 | COCCCCCCCCNC(=O)NC12CC3CC(CC(C3)C1)C2 [Compound 1450] | –
16 | 660 ± 10 | Cc1c(COC(=O)NC2CCCCC2)cccc1-c1ccccc1 [Compound 1230] | –
17 | 10 ± 10 | O=C(NC1CCCC(C(=O)OC(c2ccccc2)c2ccccc2)C1)NC12CC3CC(CC(C3)C1)C2 (centres unmarked) [Compound 1437] | –
18 | 10 ± 10 | CCOCCOCCOc1ccc(C(OC(=O)CCCNC(=O)NC23CC4CC(CC(C4)C2)C3)c2ccccc2)cc1 (centres unmarked) [Compound 1438] | –
19 | 10 ± 10 | O=C(O)CCc1ccc(NC(=O)NC23CC4CC(CC(C4)C2)C3)cc1 [Compound 1223] | –
20 | 20 ± 10 | O=C(O)Cc1cccc(NC(=O)NC23CC4CC(CC(C4)C2)C3)c1 [Compound 1225] | –
21 | 30 ± 10 | O=C(CC12CC3CC(CC(C3)C1)C2)Nc1cccc(C(=O)O)c1 [Compound 1453] | –
22 | 10 ± 10 | O=C(Nc1ccc(I)cc1)NC1CCC(Oc2ccc(F)cc2)CC1 (centres unmarked) [Compound 1518] | –
23 | 30 ± 10 | O=C(CC12CC3CC(CC(C3)C1)C2)Nc1ccc(O)cc1 [Compound 1454] | –
24 | 10 ± 10 | O=C(Nc1ccc(O)c(Cl)c1)NC12CC3CC(CC(C3)C1)C2 [Compound 1446] | –
25 | 10 ± 10 | O=C(Nc1ccc(C(F)(F)F)cc1)NC1CCC(Oc2ccc(F)cc2)CC1 (centres unmarked) [Compound 1517] | –
26 | 1230 ± 10 | Cc1c(COC(=O)N(C(C)C)C(C)C)cccc1-c1ccccc1 [Compound 1465] | –

More lines, now with the values behind:

Row | Structure (SMILES) | IC50 [1] [nM] | further results
27 | O=C(Nc1cccc(Oc2ccccc2)c1)NC12CC3CC(CC(C3)C1)C2 [Compound 1195] | 10 ± 10 | –
28 | CCOC(=O)C(C)Oc1ccc(NC(=O)NC23CC4CC(CC(C4)C2)C3)cc1 (centres unmarked) [Compound 1186] | 10 ± 10 | –
29 | O=C(NCCCCCOCCCN1CCS(=O)(=O)CC1)NC12CC3CC(CC(C3)C1)C2 [Compound 1131] | 10 ± 10 | –
30 | O=C(CCCCCCOCCCc1ccccc1)NC12CC3CC(CC(C3)C1)C2 [Compound 1027] | 20 ± 10 | –
31 | CCC(=O)Oc1ccc(NC(=O)NC23CC4CC(CC(C4)C2)C3)cc1 [Compound 1221] | 10 ± 10 | –
32 | O=C(NC1CCCC(C(=O)NCCOCCO)C1)NC12CC3CC(CC(C3)C1)C2 (centres unmarked) [Compound 1022] | 40 ± 10 | –
33 | O=C(NC1CCC(OCc2ccccc2F)CC1)NC12CC3CC(CC(C3)C1)C2 (centres unmarked) [Compound 1150] | 10 ± 10 | –
34 | CC(C)=CCCC(C)CCOC(=O)CCCNC(=O)NC12CC3CC(CC(C3)C1)C2 (centres unmarked) [Compound 798, 4-(3-Adamantan-1-yl-ureido) butyric Acid 3,7-Dimethyl-oct-6-enyl Ester] | – | IC50 (Table 5, fluorescent-based assay, 0.96 nM human sEH, pH 7.0, [S] = 5 μM, read-out: Human sEH IC50): 7.6 nM
35 | O=C(NC1CCC(O)CC1)C12CC3CC(CC(C3)C1)C2 (centres unmarked) [Compound 1142] | 10 ± 10 | –
36 | O=C(NC1CCC(OCc2ccccc2C(F)(F)F)CC1)NC12CC3CC(CC(C3)C1)C2 (centres unmarked) [Compound 1143] | 10 ± 10 | –
37 | O=C(CCCCCCOCCCCCCc1ccccc1)NC12CC3CC(CC(C3)C1)C2 [Compound 1125] | 10 ± 10 | –
38 | O=C(O)COc1ccc(NC(=O)NC23CC4CC(CC(C4)C2)C3)cc1 [Compound 1185] | 140 ± 10 | –
39 | CCC(=O)Oc1cccc(NC(=O)NC23CC4CC(CC(C4)C2)C3)c1 [Compound 1194] | 10 ± 10 | –
40 | O=C(NC1CCC(OC(=O)c2ccccc2)CC1)NC12CC3CC(CC(C3)C1)C2 (centres unmarked) [Compound 1074] | 10 ± 10 | –
41 | O=C(CC12CC3CC(CC(C3)C1)C2)NCCCCCOCCOCCOCc1ccccc1 [Compound 1063-2] | 10 ± 10 | –
42 | CCOCCOCCOCCCCCNC(=O)NC1C2CC3CC(C2)CC1C3 (centres unmarked) [Compound 1128] | 10 ± 10 | –
43 | COCOc1cc(F)c(COC2CCC(NC(=O)NC34CC5CC(CC(C5)C3)C4)CC2)c(F)c1 (centres unmarked) [Compound 1106] | 10 ± 10 | –
44 | CCOCCOCCOCCOC(=O)CCCCCCCCCCCNC(=O)NC12CC3CC(CC(C3)C1)C2 [Compound 1067] | 10 ± 10 | –
45 | COCOc1cc(F)c(COC2CCC(NC(=O)NC34CC5CC(CC(C5)C3)C4)CC2)c(F)c1 (centres unmarked) [Compound 1105] | 10 ± 10 | –
46 | CCOCCOCCOCCCCCNC(=O)NC1C2CC3CC(C2)CC1C3 (centres unmarked) [Compound 1172] | 10 ± 10 | –
47 | O=C(Nc1cc(O)ccc1Cl)NC12CC3CC(CC(C3)C1)C2 [Compound 1189] | 20 ± 10 | –
48 | O=C(NC1CCC(OC2CCCCC2)CC1)NC12CC3CC(CC(C3)C1)C2 (centres unmarked) [Compound 1097] | – | IC50: 10 ± 10 nM
49 | O=C(O)CCCCCCCNC(=O)NC12CC3CC(CC(C3)C1)C2 [Compound 1214] | 10 ± 10 | –

Row | Structure (SMILES) | IC50 [1] [nM] | further results
50 | O=C(Nc1ccc(O)cc1)NC12CC3CC(CC(C3)C1)C2 [Compound 1183] | 20 ± 10 | –
51 | O=C(CC12CC3CC(CC(C3)C1)C2)NC12CC3CC(CC(O)(C3)C1)C2 [Compound 1064] | 40 ± 10 | –
52 | O=C(NC12CC3CC(CC(C3)C1)C2)N[C@H]1CC[C@H](OC(=O)c2ccc([N+](=O)[O-])cc2)CC1 (relative stereo) [Compound 1076, trans-4-Nitro-benzoic acid 4-(3-tricyclo[3.3.1.13,7]decan-1-yl-ureido)-cyclohexyl ester] | 10 ± 10 | –
53 | O=C(Nc1ccccc1)NC1CCC(OCc2c(F)cccc2F)CC1 (centres unmarked) [Compound 1148] | 10 ± 10 | –
54 | CCOC(=O)c1ccc(C(OC(=O)C2CCCC(NC(=O)NC34CC5CC(CC(C5)C3)C4)C2)c2ccccc2)cc1 (centres unmarked) [Compound 1066] | 10 ± 10 | –
55 | CC(Oc1ccc(NC(=O)NC23CC4CC(CC(C4)C2)C3)cc1)C(=O)O (centres unmarked) [Compound 1187] | 10 ± 10 | –
56 | O=C(NC1CCCCC1)Oc1cccc(-c2ccccc2)c1 [Compound 1229] | 920 ± 10 | –
57 | O=C(CCCCCNC(=O)NC12CC3CC(CC(C3)C1)C2)NC(C(=O)NC(C(=O)O)c1c[nH]c2ccccc12)c1ccccc1 (centres unmarked) [Compound 1084] | 10 ± 10 | –
58 | CC(=O)Oc1ccc(NC(=O)NC23CC4CC(CC(C4)C2)C3)cc1 [Compound 1220] | 10 ± 10 | –
59 | CC(=O)c1ccc(NC(=O)NC23CC4CC(CC(C4)C2)C3)cc1 [Compound 1217] | 10 ± 10 | –
60 | COc1ccc(NC(=O)NC23CC4CC(CC(C4)C2)C3)cc1O [Compound 1191] | 10 ± 10 | –
61 | O=C(O)CCCCCNC(=O)NC12CC3CC(CC(C3)C1)C2 [Compound 1213] | 170 ± 10 | –
62 | O=C(Nc1ccc(OCCN2CCOCC2)cc1)NC12CC3CC(CC(C3)C1)C2 [Compound 1197] | 10 ± 10 | –
63 | O=C(NCCCCCOCCN1CCOCC1)NC12CC3CC(CC(C3)C1)C2 [Compound 1196] | 10 ± 10 | –
64 | O=C(Nc1cccc(OC(=O)c2ccccc2)c1)NC12CC3CC(CC(C3)C1)C2 [Compound 1222] | 10 ± 10 | –
65 | O=C(CCCCCCOCCCCc1ccccc1)NC12CC3CC(CC(C3)C1)C2 [Compound 1028] | 10 ± 10 | –
66 | CC(C)N(C(=O)Oc1cccc(-c2ccccc2)c1)C(C)C [Compound 1460] | 10920 ± 10 | –
67 | O=C(Nc1cccc(C(=O)NCCN2CCOCC2)c1)NC12CC3CC(CC(C3)C1)C2 [Compound 1165] | 60 ± 10 | –
68 | O=C(Nc1ccc(C(=O)O)cc1)NC12CC3CC(CC(C3)C1)C2 [Compound 1177] | 10 ± 10 | –
69 | O=C(Nc1cccc(C(=O)OC(c2ccccc2)c2ccccc2)c1)NC12CC3CC(CC(C3)C1)C2 [Compound 1182] | 10 ± 10 | –
70 | O=C(O)Cc1ccc(NC(=O)NC23CC4CC(CC(C4)C2)C3)cc1 [Compound 1178] | 10 ± 10 | –
71 | O=C(Nc1ccccc1)NC1CCC(OCc2c(F)cccc2F)CC1 (centres unmarked) [Compound 1147] | 10 ± 10 | –
